Measurements reported in article PMC12467033, “Exploring the Inhibitory Potential of Six Porphyrin Compounds Against α-Amylase and α-Glucosidase Linked to Diabetes” (Biomolecules, 2025).

Key:
α-glucosidase [1] = target: T1, α-glucosidase (Saccharomyces cerevisiae, UniProt P53341); assay: In vitro stability study (temperature, pH), inhibition rate against α-glucosidase; format: physicochemical; details: water bath 30–100 °C, 20 min
Description: (§1) Samples of a certain mass concentration were subjected to a water bath at different temperatures (30, 40, 50, 60, 70, 80, 90, 100 °C) for 20 min and treated under different pH conditions (2.0, 3.0, 4.0, 5.0, 6.0, 7.0, 8.0, 9.0, and 10.0) for 20 min to determine the effect of temperature and pH on the stability of the two enzymes.

α-amylase [2] = target: T2, α-amylase (Sus scrofa, UniProt P00690); assay: In vitro stability study (temperature, pH), inhibition rate against α-amylase; format: physicochemical; details: water bath 30–100 °C, 20 min
T2 sequence (P00690 16-511): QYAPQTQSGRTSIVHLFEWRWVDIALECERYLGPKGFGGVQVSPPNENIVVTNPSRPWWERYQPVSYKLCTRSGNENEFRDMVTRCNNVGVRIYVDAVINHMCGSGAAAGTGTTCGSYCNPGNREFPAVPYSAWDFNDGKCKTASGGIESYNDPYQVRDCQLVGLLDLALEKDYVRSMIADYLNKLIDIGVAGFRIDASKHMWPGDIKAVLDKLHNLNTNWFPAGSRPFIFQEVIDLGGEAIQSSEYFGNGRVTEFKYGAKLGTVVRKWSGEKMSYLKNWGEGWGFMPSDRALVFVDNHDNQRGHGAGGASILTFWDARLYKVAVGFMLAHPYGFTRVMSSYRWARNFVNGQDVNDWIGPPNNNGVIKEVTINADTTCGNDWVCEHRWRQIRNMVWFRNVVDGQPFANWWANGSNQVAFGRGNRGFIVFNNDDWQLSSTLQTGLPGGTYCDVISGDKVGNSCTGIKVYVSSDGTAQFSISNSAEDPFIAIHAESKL
Description: as §1

α-glucosidase [3] = target: T1, α-glucosidase; assay: FTIR secondary structure analysis of α-GLU complexes; details: enzyme–porphyrin molar ratio 1:2, amide I band
Excerpt: A molar ratio of 1:2 (α-amylase/α-glucosidase)–porphyrin solution was placed in a cryocentrifugal concentrator and the dried solid sample was mixed with dry KBr and measured using a Nicolet IS-50 FTIR Spectrometer (ThermoFisher, Waltham, MA, USA) with a scanning range of 4000–400 cm^−1 and a resolution of 4 cm^−1. The overlapping peaks in the amide I band (1700–1600 cm^−1) were further analyzed into multiple feature sub-peaks, and quantitative analysis of the relative content of various secondary structures in proteins using curve fitting methods was performed.

α-amylase [4] = target: T2, α-amylase; assay: Mode of α-AMY inhibition (reversibility, Lineweaver–Burk kinetics); format: biochemical
Excerpt: In the experiment, the concentration of the fixed substrate Gal-G2-α-CNP/pNPG solution was 5 mmol/L, and the concentrations of the two enzymes (100, 200, 300, 400 U/L) were used to determine the effect of different concentrations of porphyrins on enzyme activity. The concentration of the enzyme was 200 U/L, and the concentration of the substrate Gal-G2-α-CNP/pNPG solution (2.5, 5, 7.5, 10 mmol/L) was used to determine the effect of different concentrations of porphyrins on the enzyme-catalyzed substrate activity.
Upon identifying the type of inhibition, the kinetic equations vary for different inhibition types.
In the formula, v, Vmax, Km, Ki, and Kis represent the reaction rate, maximum reaction rate, Michaelis constant, and free enzyme inhibition constant, respectively, and the binding enzyme inhibition constant. [S] denotes the substrate concentration. [I] denotes the inhibitor concentration.

α-glucosidase [5] = target: T1, α-glucosidase; assay: α-Glucosidase inhibitory activity assay (pNPG substrate); format: biochemical; details: 37 °C
Description: The experimental groups were supplemented with different concentrations of porphyrin compounds, followed by the addition of 100 μL of 5 mmol/L pNPG. After thorough mixing, the samples were pre-incubated at 37 °C for 10 min. Subsequently, the reaction was terminated by adding 0.1 mol/L of sodium carbonate (Na2CO3) solution. Following a 3 min reaction period, the absorbance of the solutions at 405 nm was measured using a microplate reader. The inhibition rate (%) was subsequently calculated using Formula (1).
(§2) Using the enzyme inhibition rate as the y-axis and the inhibitor concentration as the x-axis, the IC50 value was calculated through linear regression fitting with GraphPad Prism software (5.0).

α-amylase [6] = target: T2, α-amylase; assay: α-Amylase inhibitory activity assay (Gal-G2-α-CNP substrate); format: biochemical; details: 37 °C, pH 6.8
Description: The inhibitory activity detection process was slightly modified, with reference as the base method from the literature. […] After thorough mixing, the samples were pre-incubated at 37 °C for 10 min. Subsequently, 100 μL of 5 mmol/L Gal-G2-α-CNP substrate was added to each sample. Following a 3 min reaction period, the absorbance of the solutions at 405 nm was measured using a microplate reader. The inhibition rate (%) was calculated based on the absorbance readings according to Formula (1).(1) inhibition rate%=(1−(A1−A2)/(A3−A4))×100
In the formula, A1 represents the sample group; A2 represents the sample control group (where the enzyme was replaced with phosphate buffer); A3 represents the blank control group; and A4 represents the reagent blank control group (containing blank sample solution and phosphate buffer).
as §2

HepG2 cells = assay: MTT cytotoxicity assay; format: cell-based, human; details: HepG2, 50–200 μg/mL, 24 h
Description: The cytotoxicity of six porphyrin compounds against human hepatocellular carcinoma HepG2 cells was evaluated using the MTT assay. HepG2 cells were seeded into 96-well plates at a density of 5000 cells per well and cultured for 24 h at 37 °C in a 5% CO2 incubator. Then, 100 µL of sample solutions at various concentrations (50, 100, and 200 µg/mL) was added to the experimental wells, with blank control wells and solvent control wells also included. The cells were further incubated for 24 h. After incubation, 10 µL of MTT solution (5 mg/mL) was added to each well, and the plates were incubated for another 4 h. Subsequently, 100 µL of Formazan solubilization solution was added to each well, followed by gentle mixing. The plates were returned to the incubator and maintained until complete dissolution of Formazan crystals was observed under a microscope. The absorbance at 570 nm was measured using a microplate reader (Meigu Molecular Instrument Company, Shanghai, China), and the survival rate of HepG2 cells was calculated.(12) Cell viability=As-Ab/Ac-Ab×100%
In the formula, As represents the absorbance of the sample well, Ac denotes the absorbance of the blank control well (without the drug), and Ab refers to the absorbance of the solvent control well (devoid of both cells and the drug).

T1 sequence (P53341 whole entry): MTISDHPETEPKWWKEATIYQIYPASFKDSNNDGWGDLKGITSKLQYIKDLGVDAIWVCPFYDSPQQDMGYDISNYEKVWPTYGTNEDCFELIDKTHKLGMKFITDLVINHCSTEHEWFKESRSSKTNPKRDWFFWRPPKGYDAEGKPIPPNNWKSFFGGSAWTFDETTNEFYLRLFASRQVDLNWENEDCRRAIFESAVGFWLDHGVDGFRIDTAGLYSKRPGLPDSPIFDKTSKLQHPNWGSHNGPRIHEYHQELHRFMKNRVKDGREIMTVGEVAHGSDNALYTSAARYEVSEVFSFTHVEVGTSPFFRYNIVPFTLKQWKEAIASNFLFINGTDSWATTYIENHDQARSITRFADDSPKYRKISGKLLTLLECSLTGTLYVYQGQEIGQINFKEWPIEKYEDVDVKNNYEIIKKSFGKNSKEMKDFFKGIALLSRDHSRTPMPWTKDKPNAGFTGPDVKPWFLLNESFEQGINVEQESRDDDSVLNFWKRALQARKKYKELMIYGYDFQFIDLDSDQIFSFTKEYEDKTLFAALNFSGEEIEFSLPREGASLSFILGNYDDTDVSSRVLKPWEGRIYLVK

## O=C(O)c1ccc(-c2c3nc(c(-c4ccc(C(=O)O)cc4)c4ccc([nH]4)c(-c4ccc(C(=O)O)cc4)c4nc(c(-c5ccc(C(=O)O)cc5)c5ccc2[nH]5)C=C4)C=C3)cc1.[Ni+2] [Ni–TCPP, nickel (II) meso-tetra (4-carboxyphenyl) porphine]
α-glucosidase [1]
  thermal stability: inhibition rate against α-glucosidase: remained relatively stable
α-amylase [2]
  thermal stability: inhibition rate against α-amylase: small fluctuations
α-glucosidase [3]
  Random Coil: 26.76 ± 0.07%
  α-Helix: 19.75 ± 0.07%
  β-Antiparallel: 1.88 ± 0.01%
  β-Sheet: 13.68 ± 0.04%
  β-Turn: 37.94 ± 0.10%
α-amylase [4]; C 40 μg/mL
  Km: 3.6229 ± 0.1082 µg/mL
  Vmax: 0.1456 ± 0.0043 ΔOD/min
α-amylase [4]; C 80 μg/mL
  Km: 3.6134 ± 0.1167 µg/mL
  Vmax: 0.1238 ± 0.0040 ΔOD/min
α-amylase [4]; C 120 μg/mL
  Km: 3.6072 ± 0.0593 µg/mL
  Vmax: 0.1032 ± 0.0017 ΔOD/min
α-amylase [4]; C 160 μg/mL
  Km: 3.6027 ± 0.1141 µg/mL
  Vmax: 0.0901 ± 0.0029 ΔOD/min
α-amylase [4]; C 200 μg/mL
  Km: 3.5987 ± 0.0938 µg/mL
  Vmax: 0.0799 ± 0.0021 ΔOD/min
α-amylase [4]; Lineweaver–Burk plots
  type of inhibition of α-amylase: non-competitive inhibition
α-amylase [4]; enzyme 100–400 U/L, substrate 5 mmol/L
  reversibility of inhibition of α-amylase: reversible inhibition
α-amylase [4]; free enzyme inhibition constant
  Ki: 157.9542 ± 0.1375 µg/mL
α-glucosidase [5]
  IC50 α-GLU: 6.58 ± 0.21 µg/mL
α-amylase [6]
  IC50 α-amylase: 156.26 ± 0.48 µg/mL
HepG2 cells
  cell viability: above 88%
